Experiment in all cases: ≥ marks a high value that may be exact or a test limit, other limits are often not marked, values filed in µg/mL are converted to µM
The test system of test [1] is Enterococcus faecalis 981.
Test [2] concerns Staphylococcus aureus ATCC 25923.
The test system of test [3] is Nocardia asteroides 201118.
Test [4] deals with Escherichia coli BL21AI.
The subject of test [5] is Micrococcus luteus ATCC 10240.
The subject of test [6] is Staphylococcus aureus KCTC 1916.
In test [7] the test system is Escherichia coli KCTC 2593.
For test [8], the system named is Pseudomonas aeruginosa KCTC 1637.
The subject of test [9] is Escherichia coli KCTC 2571.
For test [10], the system named is Pseudomonas aeruginosa KCTC 2513.
In test [11] the test system is Staphylococcus aureus KCTC 3881.
The test system of test [12] is Escherichia coli KCTC 1682.
The test system of test [13] is Pseudomonas aeruginosa KCTC 2004.
Test [14] concerns Bacillus subtilis KCTC 3068.
In test [15] the test system is Staphylococcus aureus KCTC 1621.
Test [16] has as its system Staphylococcus epidermidis KCTC 1917.
For test [17], the system named is Bacillus subtilis KCTC 1021.
Test [18] concerns Salmonella typhimurium KCTC 1926.
Test [19] deals with Bacillus subtilis KCTC 1022.
Test [20] relates to Neisseria gonorrhoeae F62.
Test [21] deals with Neisseria gonorrhoeae FA19.
The subject of test [22] is Pectobacterium carotovorum subsp. carotovorum DSM 30168.
In test [23] the test system is Pseudomonas syringae pv. tomato DC3000.
Test [24] has as its system Botrytis cinerea.
The subject of test [25] is Xanthomonas vesicatoria DSM 50861.
For test [26], the system named is Staphylococcus aureus 90857.
For test [27], the system named is Pseudomonas syringae pv. syringae DSM 10604.
The subject of test [28] is Clavibacter michiganensis subsp. michiganensis DSM 46294.
For test [29], the system named is Cladosporium herbarum.
Test [30] concerns Alternaria alternata.
For test [31], the system named is Pseudomonas corrugata DSM 7228.

MIC data for eight compounds are collected here from DBAASP.

By MIC is commonly meant the smallest concentration in the dilution series that meets the test's criterion for growth inhibition.

SMILES strings stand for the structures. ≈ marks a conversion by molar mass, not a printed value.

On to `CC[C@H](C)[C@H](NC(=O)[C@H](CCCCN)NC(=O)[C@@H]1CCCN1C(=O)[C@H](CC(C)C)NC(=O)[C@H](CC(C)C)NC(=O)[C@@H](NC(=O)[C@H](CO)NC(=O)[C@H](CC(C)C)NC(=O)[C@H](C)NC(=O)CNC(=O)[C@H](Cc1ccccc1)NC(=O)[C@H](CC(C)C)NC(=O)[C@H](CC(C)C)NC(=O)[C@@H]1CCCN1C(=O)[C@H](CC(C)C)NC(=O)[C@@H](N)Cc1ccccc1)[C@@H](C)O)C(=O)N[C@@H](Cc1ccccc1)C(N)=O` [FLPLLFGALSTLLPKIF], for which the MIC is at least 50 µM in [1], 25 µM (≈ 47.2 µg/mL) in test [2] and 12.5 µM (≈ 23.6 µg/mL) in [3].

For `CC[C@H](C)[C@H](NC(=O)[C@H](CCCN=C(N)N)NC(=O)[C@H](CCCN=C(N)N)NC(=O)[C@@H]1CCCN1C(=O)[C@@H]1CCCN1C(=O)[C@H](CCCN=C(N)N)NC(=O)[C@@H]1CCCN1C(=O)[C@H](CCCN=C(N)N)NC(=O)[C@@H]1CCCN1C(=O)[C@H](CC(C)C)NC(=O)[C@H](Cc1ccc(O)cc1)NC(=O)[C@@H]1CCCN1C(=O)[C@@H]1CCCN1C(=O)[C@H](CCCCN)NC(=O)[C@H](CC(=O)O)NC(=O)[C@@H](N)C(C)C)C(=O)N[C@@H](Cc1ccc(O)cc1)C(=O)N[C@@H](CC(N)=O)C(=O)N[C@@H](CC(N)=O)C(N)=O` [VDKPPYLPRPRPPRRIYNN], the MIC in [4] is 6.81 µM (≈ 16 µg/mL); in [5], 27.2 µM (≈ 64 µg/mL).

Turning to `CC[C@H](C)[C@H](NC(=O)CNC(=O)[C@H](CCCN=C(N)N)NC(=O)[C@H](Cc1c[nH]c2ccccc12)NC(=O)[C@@H](NC(=O)[C@H](Cc1cnc[nH]1)NC(=O)[C@H](Cc1cnc[nH]1)NC(=O)[C@H](Cc1ccccc1)NC(=O)[C@@H](N)Cc1ccccc1)[C@@H](C)CC)C(=O)N[C@H](C(=O)N[C@@H](Cc1cnc[nH]1)C(=O)N[C@H](C(=O)NCC(=O)N[C@@H](CCCCN)C(=O)N[C@H](C(=O)N[C@H](C(=O)N[C@@H](Cc1cnc[nH]1)C(=O)N[C@@H](CCCN=C(N)N)C(=O)N[C@@H](CC(C)C)C(=O)N[C@H](C(=O)N[C@H](C(=O)NCC(=O)O)[C@@H](C)O)C(C)C)[C@@H](C)CC)[C@@H](C)O)C(C)C)C(C)C` [FFHHIWRGIVHVGKTIHRLVTG], the MIC amounted to 2 µM (≈ 5.22 µg/mL) in test [6]; 2 µM (≈ 5.22 µg/mL) in test [7]; 4 µM (≈ 10.4 µg/mL) in test [8]; 2 µM (≈ 5.22 µg/mL) in [9]; 4 µM (≈ 10.4 µg/mL) in test [10]; 2 µM (≈ 5.22 µg/mL) in test [11]. Further, the MIC in [12] came out at 2 µM (≈ 5.22 µg/mL); in test [13] it was 4 µM (≈ 10.4 µg/mL); in test [14], 4 µM (≈ 10.4 µg/mL); in test [15], 2 µM (≈ 5.22 µg/mL); in test [16], 2 µM (≈ 5.22 µg/mL); in test [17], 4 µM (≈ 10.4 µg/mL). The MIC in [18] and in test [19] was 4 µM (≈ 10.4 µg/mL) throughout.

As for `CC(C)C[C@H](N)C(=O)N[C@H]1CSSC[C@@H](C(=O)N[C@H](C(N)=O)C(C)C)NC(=O)[C@H](C(C)C)NC(=O)[C@H](C)NC(=O)[C@H](Cc2ccccc2)NC(=O)[C@H](CCCN=C(N)N)NC(=O)[C@H](CCCN=C(N)N)NC(=O)[C@H](CCCN=C(N)N)NC(=O)[C@H](C)NC(=O)[C@H](Cc2ccc(O)cc2)NC1=O` [LCYARRRFAVCV], the MIC was found to be 1.1 µM (≈ 1.6 µg/mL) in test [20] and 7.65 µM (≈ 11.1 µg/mL) in test [21].

On to `CC(C)C[C@H](NC(=O)[C@H](CCCCN)NC(=O)[C@H](CC(C)C)NC(=O)[C@H](CCCN=C(N)N)NC(=O)[C@H](CCCCN)NC(=O)[C@H](CCCCN)NC(=O)[C@@H](N)CCCN=C(N)N)C(=O)N[C@@H](CC(C)C)C(=O)N[C@@H](CCCCN)C(=O)N[C@@H](CCCN=C(N)N)C(=O)N[C@@H](CC(C)C)C(=O)N[C@H](C(N)=O)C(C)C` [RKKRLKLLKRLV], for which the MIC in test [22] is 25.8 µM (≈ 40 µg/mL); in test [23], 0.645 µM (≈ 0.999 µg/mL); in test [24] it was at least 64.5 µM; in test [25] it was 1.29 µM (≈ 2 µg/mL); in test [26], 25 µM (≈ 38.8 µg/mL); in test [27], 1.29 µM (≈ 2 µg/mL). For the same compound, the MIC in test [28] is 0.645 µM (≈ 0.999 µg/mL); in [29], 6.45 µM (≈ 9.99 µg/mL); in test [30], at least 64.5 µM; in test [31] it was 1.29 µM (≈ 2 µg/mL).

Consider `CC(C)C[C@H](NC(=O)[C@H](CCCNC(=N)N)NC(=O)CNC(=O)CNC(=O)[C@@H](N)CCCNC(=N)N)C(=O)N[C@@H](C)C(=O)N[C@@H](Cc1ccc(O)cc1)C(=O)N[C@@H](C)C(=O)N[C@@H](CCCNC(=N)N)C(=O)N[C@@H](CCCNC(=N)N)C(=O)N[C@@H](CCCNC(=N)N)C(=O)N[C@@H](Cc1ccccc1)C(=O)N[C@@H](C)C(=O)N[C@H](C(=O)N[C@@H](C)C(=O)N[C@H](C(=O)NCC(=O)N[C@@H](CCCNC(=N)N)C(N)=O)C(C)C)C(C)C` [RGGRLAYARRRFAVAVGR], for which the MIC in test [20] was 10 µM (≈ 20.3 µg/mL); in test [21], at least 224 µM.

In the case of `CC[C@H](C)[C@H](NC(=O)[C@H](Cc1ccc(O)cc1)NC(=O)[C@@H](NC(=O)[C@@H]1CCCN1C(=O)[C@H](CCCN=C(N)N)NC(=O)[C@H](CC(N)=O)NC(=O)[C@H](CC(N)=O)NC(=O)CN)C(C)C)C(=O)N1CCC[C@H]1C(=O)N[C@@H](CCCN=C(N)N)C(=O)N1CCC[C@H]1C(=O)N[C@@H](CCCN=C(N)N)C(=O)N1CCC[C@H]1C(=O)N1CCC[C@H]1C(=O)N[C@@H](Cc1cnc[nH]1)C(=O)N1CCC[C@H]1C(=O)N[C@@H](CCCN=C(N)N)C(=O)N[C@@H](CC(C)C)C(=O)N[C@H](C(=O)O)C(C)C` [GNNRPVYIPRPRPPHPRLV], the MIC in test [4] came to 3.49 µM (≈ 7.81 µg/mL); in [5], 0.107 µM (≈ 0.24 µg/mL).

Regarding `CC[C@H](C)[C@H](NC(=O)CNC(=O)[C@H](CCCN=C(N)N)NC(=O)[C@H](Cc1ccccc1)NC(=O)[C@@H](NC(=O)[C@H](Cc1cnc[nH]1)NC(=O)[C@H](Cc1cnc[nH]1)NC(=O)[C@H](Cc1c[nH]c2ccccc12)NC(=O)[C@@H](N)Cc1ccccc1)[C@@H](C)CC)C(=O)N[C@H](C(=O)N[C@@H](Cc1cnc[nH]1)C(=O)N[C@H](C(=O)NCC(=O)N[C@@H](CCCCN)C(=O)N[C@H](C(=O)N[C@H](C(=O)N[C@@H](Cc1cnc[nH]1)C(=O)N[C@@H](CCCN=C(N)N)C(=O)N[C@@H](CC(C)C)C(=O)N[C@H](C(=O)N[C@H](C(=O)NCC(=O)O)[C@@H](C)O)C(C)C)[C@@H](C)CC)[C@@H](C)O)C(C)C)C(C)C` [FWHHIFRGIVHVGKTIHRLVTG], the MIC in test [6] came to 2 µM (≈ 5.22 µg/mL); in test [7], 2 µM (≈ 5.22 µg/mL); in test [8], 4 µM (≈ 10.4 µg/mL); in test [9], 2 µM (≈ 5.22 µg/mL); in test [10], 4 µM (≈ 10.4 µg/mL); in [11] it was 2 µM (≈ 5.22 µg/mL). Besides, the MIC is 2 µM (≈ 5.22 µg/mL) in test [12]; 4 µM (≈ 10.4 µg/mL) in test [13]; 2 µM (≈ 5.22 µg/mL) in [14]; 2 µM (≈ 5.22 µg/mL) in test [15]; 2 µM (≈ 5.22 µg/mL) in test [16]; 2 µM (≈ 5.22 µg/mL) in test [17]. The MIC in [18] and in test [19] was 2 µM (≈ 5.22 µg/mL) each time.
